{
  "source": "patent US9708247B2",
  "about": "“Modulators of the eIF2alpha pathway” (The Regents of the University of California, priority 2013, dated 2017)",
  "key": {"[1]": {"tested_on": "mouse embryonic fibroblasts (MEFs)", "experiment": "Polysome gradient analysis in MEFs", "assay_type": "cell-based", "protocol": "Mouse Embryonic Fibroblasts (MEFs) or TREx-293 cells expressing eIF2α(S51D) were seeded on 150 mm plates and allowed to grow to 80% confluence. Cells were then induced with 25 nM doxycycline for 14 h and subsequently treated with the appropriate compounds for the indicated times. 100 μg/ml of cycloheximide was added to the cells for 1 min before lysis. Cells were washed twice with PBS supplemented with 100 μg/ml cycloheximide and subsequently lysed in 20 mM Tris pH 7.4, 200 mM NaCl, 15 mM MgCl, 1 mM DTT, 8% Glycerol, 100 μg/ml cycloheximide, 1% Triton X-100 and EDTA-free protease inhibitor tablets (Roche). Cells were scraped, collected, triturated with a 25^7/8 gauge needle, and the homogenate was centrifuged for 10 min at 10,000×g. The supernatant was loaded on a 10-50% sucrose gradient and sedimented in a SW40 rotor at 150,000×g for 2.4 h. The gradients were fractionated using a piston gradient fractionator (BioComp) and UV absorbance at 254 nm was monitored using a UV-Monitor (BioRad)."}, "[2]": {"tested_on": "CHOP and GADD34 mRNA", "experiment": "qRT-PCR of CHOP and GADD34 mRNA in U2OS cells", "assay_type": "cell-based, human", "details": "2 μg/ml tunicamycin, 200 nM ISRIB", "protocol": "FIGS. 4A-4B. ISRIB impairs induction of the transcriptional network controlled by ATF4; (FIG. 4A) ER-stress dependent induction of CHOP and GADD34 mRNA is impaired in cells treated with ISRIB; qPCR analysis of total RNA extracted from U2OS cells treated with 2 μg/ml of tunicamycin in the presence or absence of 200 nM ISRIB for the indicated times; mRNA levels for each sample were normalized to GAPDH (N=4); P values are derived from a one tail Student's t-test for unpaired samples; statistical significance: CHOP, P=0.0006 (*); GADD34, P=0.0008 (*); (FIG. 4B) ISRIB blocks CHOP production during ER stress; an immunofluorescence analysis of U2OS cells treated with 100 nM thapsigargin for 2 h in the presence or absence of 200 nM ISRIB is shown; a secondary Alexa Dye 488 anti-mouse antibody and rhodamine-phalloidin were used to visualize CHOP and actin, respectively.\nU2OS cells were plated on 96 well plates and allowed to recover overnight. Cells were treated for the indicated times with the indicated compounds, lysed and cDNA was synthesized using the PowerSYBR Green Cells-to-CT kit (Ambion) following the manufacturer's recommendations. The reactions were ran in an Opticon 2 thermal cycler (BioRad) and analyzed with the Opticon Monitor v3 software (BioRad). […]"}, "[3]": {"tested_on": "HEK293T cells", "assay_type": "cell-based, human", "details": "2 μg/mL tunicamycin plus 200 nM ISRIB, 24 h", "source_text": "FIGS. 5A-5D. […]"}, "[4]": {"tested_on": "RPMI8226 cells", "experiment": "Polysome gradient analysis in RPMI8226 cells", "assay_type": "cell-based, human", "details": "ER-stressed (5 μg/ml tunicamycin) and un-stressed cells, 1 μM ISRIB"}, "[5]": {"tested_on": "hippocampal-dependent memory", "experiment": "Trace fear conditioning after surgery (postsurgical cognitive dysfunction)", "assay_type": "in vivo, mouse", "details": "mice, perioperative administration, postoperative day three", "source_text": "FIG. 26. Experimental design for measuring postsurgical cognitive dysfunction and effects of ISRIB on cognitive function; measurement of memory is a behavioral test using trace fear conditioning (TFC), which aims to establish a permanent memory in animals by using sensorial information; associative learning is presented with a neutral conditioning stimulus, paired with an aversive unconditioning stimulus (e.g. shock); freezing by the animal corresponds to the ability of the animal to retain memory from the context in which it has been trained. Separate cohorts of animals were used to assess inflammatory status 24 h after surgery. Downwards arrows represent injection points. FIG. 27. […] Control animals were given vehicle solution."}, "[6]": {"tested_on": "IL-6", "experiment": "Serum IL-6 after surgery (ELISA)", "assay_type": "in vivo, mouse", "details": "mice, perioperative administration, 24 h after surgery", "source_text": "FIG. 26. Experimental design for measuring postsurgical cognitive dysfunction and effects of ISRIB on cognitive function; measurement of memory is a behavioral test using trace fear conditioning (TFC), which aims to establish a permanent memory in animals by using sensorial information; associative learning is presented with a neutral conditioning stimulus, paired with an aversive unconditioning stimulus (e.g. shock); freezing by the animal corresponds to the ability of the animal to retain memory from the context in which it has been trained. Separate cohorts of animals were used to assess inflammatory status 24 h after surgery. Downwards arrows represent injection points.\nFIG. 28. […] Levels were measured using an enzyme-linked immunosorbent kit."}},
  "data": [
    {"smiles": "O=C(COc1ccc(Cl)cc1)NC1CCC(NC(=O)COc2ccc(Cl)cc2)CC1", "note": "(stereo not shown) [ISRIB]", "values": [
      {"measurement": "translational attenuation by Torin-1 (CAP-dependent initiation)", "setting": "[1]; 750 nM torin-1, 200 nM ISRIB, 2 h", "result": "did not reverse the effect of Torin-1 on translation"},
      {"measurement": "ER stress-induced increase in 80S monosomes at the expense of polyribosomes", "setting": "[1]; 2 μg/ml tunicamycin, 200 nM ISRIB, 1 h", "result": "reversed (at least partially)"},
      {"measurement": "induction of GADD34 and CHOP mRNAs", "setting": "[2]", "result": "significantly reduced their induction"},
      {"measurement": "cell survival of ER-stressed cells (colony number and size)", "setting": "[3]", "result": "strong synergistic effect"},
      {"measurement": "translation in multiple myeloma cells", "setting": "[4]", "result": "increased translation"},
      {"measurement": "memory impairment after surgery (freezing)", "setting": "[5]", "result": "mitigated memory impairment after surgery"},
      {"measurement": "serum IL-6 increase after surgery", "setting": "[6]", "result": "abrogated the increase in IL6"}
    ]}
  ]
}
